# Assay results taken from PubChem BioAssay AID651934 (Southern Research Specialized Biocontainment Screening …, 2012).
# Active and inactive are the calls of the source. How the calls were made is not given here.
# System: not listed separately
# Assay: Chikungunya virus CPE inhibitors, dose response, cell-based, secondary assay, set 3 (AID 651934)
# Conditions: Chikungunya virus infected cells, CPE inhibition; at 0.625 µM (top of the series)
row,Structure (SMILES),inhibition
1,COc1ccc(NC(=O)c2cc([N+](=O)[O-])ccc2N=C2CN(C)CCN2C)cc1,0.6% (inactive)

# Same assay, conditions: Chikungunya virus infected cells, CPE inhibition; at 25 µM (top of the series)
row,Structure (SMILES),inhibition
1,CCN1CCN(c2nc3ccc([N+](=O)[O-])cc3c(=O)n2-c2ccccc2)CC1,-1.4% (inactive)
2,O=c1nc(NC2CCNCC2)sc2ncccc12,-0.4% (inactive)
3,O=c1nc(Nc2ccc(OCc3ccccc3)cc2)sc2ncc([N+](=O)[O-])cc12,-1% (inactive)
4,CCN1CCN(Cc2nc3ccc(C#N)cc3c(=O)n2-c2ccccc2)CC1,-0.5% (inactive)
5,CCN1CCN(Cc2nc3ccc(S(=O)(=O)O)cc3c(=O)n2-c2ccccc2)CC1,-0.2% (inactive)
6,O=c1nc(Nc2ccccc2OCc2ccccc2)sc2ncccc12,-1% (inactive)
7,O=c1nc(Nc2ccc(F)cc2)sc2ncccc12,0.9% (inactive)
8,CCN1CCN(CC2Nc3ccc([N+](=O)[O-])cc3C(=O)N2c2ccccc2F)CC1 (centres undefined),-0.9% (inactive)
9,CN1CCN(C)C(=Nc2ccc([N+](=O)[O-])cc2C(=O)Nc2ccccc2)C1,-1.6% (inactive)
10,Cc1cccc(C)c1Nc1nc(=O)c2cccnc2s1,-0.7% (inactive)
11,O=c1nc(N2CCN(Cc3ccccc3)CC2)sc2ncccc12,1.8% (inactive)
12,CCN1CCN(Cc2nc3ccc([N+](=O)[O-])cc3c(=O)n2-c2ccccc2)CC1,1.8% (inactive)

# Same assay, conditions: Chikungunya virus infected cells, CPE inhibition; at 50 µM (top of the series)
row,Structure (SMILES),inhibition
1,CCN1CCN(Cc2nc3ccc([N+](=O)[O-])cc3c(=O)n2Cc2ccccc2)CC1,5.3% (inactive)
2,CN1CCN(C)C(=Nc2ccc(C#N)cc2C(=O)Nc2cccc(F)c2)C1,3.5% (inactive)
3,CN1CCN(C)C(=Nc2ccc(F)cc2C(=O)Nc2ccccc2)C1,2.2% (inactive)
4,CCN1CCN(Cc2nc3ccc(-c4nn[nH]n4)cc3c(=O)n2-c2ccccc2)CC1,0.6% (inactive)
5,CNCCCN(C)Cc1nc2ccc([N+](=O)[O-])cc2c(=O)n1-c1ccccc1,0.8% (inactive)
6,CCN1CCN(C)CC1=Nc1ccc([N+](=O)[O-])cc1C(=O)Nc1ccccc1,1.7% (inactive)
7,CCN(CC)c1nc(=O)c2cccnc2s1,-5.8% (inactive)
8,O=c1c2cc([N+](=O)[O-])ccc2nc(CN2CCCNCC2)n1-c1ccccc1,4.1% (inactive)
9,COc1ccc(Nc2nc(=O)c3cccnc3s2)cc1,-5.2% (inactive)
10,O=c1nc(Nc2ccc(CCc3ccccc3)cc2)sc2ncccc12,44% (inactive)
11,CCN1CCN(Cc2nc3ccc([N+](=O)[O-])cc3c(=O)n2-c2ccccc2F)CC1,-3.4% (inactive)
12,CNCCN(C)Cc1nc2ccc(C#N)cc2c(=O)n1-c1ccccc1F,6.3% (inactive)
13,O=C1CN(Cc2nc3ccc([N+](=O)[O-])cc3c(=O)n2-c2ccccc2F)CCN1,1.2% (inactive)
14,CN1CCN(C)C(=Nc2cc(Cl)c(C#N)cc2C(=O)Nc2ccccc2)C1,2.9% (inactive)

# System: Chikungunya virus infected cells, CPE inhibition
# Assay: as above
# Conditions: not given
row,Structure (SMILES),IC50
1,O=c1nc(Nc2ccc(OCc3ccccc3)cc2)sc2ncc(F)cc12,3.65 µM
2,O=c1nc(Nc2ccc(OCc3ccccc3)cc2)sc2ncccc12,1.06 µM
